Consider 76 molecules from article PMC8869358, “High-Throughput Chemical Screening and Structure-Based Models to Predict hERG Inhibition” (Biology, 2022).

One may read the IC50 as the concentration at which inhibition is half-maximal.

Molecules are shown by their SMILES. Where a name gives a salt, the structure may show the parent alone.

hERG, sequence (Q12809 whole entry): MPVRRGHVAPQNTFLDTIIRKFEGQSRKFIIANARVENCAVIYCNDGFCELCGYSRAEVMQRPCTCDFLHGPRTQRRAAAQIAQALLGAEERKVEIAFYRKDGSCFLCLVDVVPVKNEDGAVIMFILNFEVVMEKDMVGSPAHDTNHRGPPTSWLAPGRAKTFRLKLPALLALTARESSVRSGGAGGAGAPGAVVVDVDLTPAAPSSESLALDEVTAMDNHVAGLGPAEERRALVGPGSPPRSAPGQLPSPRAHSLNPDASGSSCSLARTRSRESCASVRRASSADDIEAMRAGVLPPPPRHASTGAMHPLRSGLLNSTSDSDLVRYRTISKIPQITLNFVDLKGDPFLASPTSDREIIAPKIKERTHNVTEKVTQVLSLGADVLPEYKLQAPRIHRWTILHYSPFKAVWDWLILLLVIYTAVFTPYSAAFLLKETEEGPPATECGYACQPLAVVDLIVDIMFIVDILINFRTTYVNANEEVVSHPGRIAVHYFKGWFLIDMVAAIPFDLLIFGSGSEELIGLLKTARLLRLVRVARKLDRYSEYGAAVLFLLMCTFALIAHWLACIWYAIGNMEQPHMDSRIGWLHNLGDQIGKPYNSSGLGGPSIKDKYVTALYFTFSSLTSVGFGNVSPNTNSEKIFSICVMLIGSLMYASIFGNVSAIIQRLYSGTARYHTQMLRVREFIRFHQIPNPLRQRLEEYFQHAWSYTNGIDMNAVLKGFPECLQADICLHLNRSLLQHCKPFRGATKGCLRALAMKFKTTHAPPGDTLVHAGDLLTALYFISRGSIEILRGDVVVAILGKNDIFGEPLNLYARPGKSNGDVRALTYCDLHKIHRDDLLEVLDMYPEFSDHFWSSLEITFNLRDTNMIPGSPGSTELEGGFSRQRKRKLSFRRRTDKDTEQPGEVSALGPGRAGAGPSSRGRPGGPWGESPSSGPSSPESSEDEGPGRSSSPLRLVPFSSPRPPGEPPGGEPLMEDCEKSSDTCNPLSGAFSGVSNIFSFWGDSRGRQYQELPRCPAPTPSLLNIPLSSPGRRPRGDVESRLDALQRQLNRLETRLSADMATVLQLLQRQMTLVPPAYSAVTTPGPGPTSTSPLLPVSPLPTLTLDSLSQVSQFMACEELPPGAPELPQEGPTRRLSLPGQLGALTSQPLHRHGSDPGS

This assay addresses hERG (Homo sapiens, UniProt Q12809). As to the kind of experiment: cell-based. The following applies: (-LOG10(IC50), µM).
In turn, `COc1cc(C(C)(C)C)c(O)c(C(C)(C)C)c1` [2,6-Di-tert-butyl-4-methoxyphenol] had an IC50 of 38.9 µM.

`CC(C)(C)c1cc([N+](=O)[O-])cc(C(C)(C)C)c1O` [2,6-Di-tert-butyl-4-nitrophenol] gave an IC50 of 38.9 µM.

`CC(C)(C)c1cccc(C(C)(C)C)c1O` [2,6-Di-tert-butylphenol]: the midpoint of inhibition, the IC50, lay at 19.8 µM.

The molecule `CC(C)(C)C1(CCc2ccc(Cl)cc2)CO1` (stereo not shown) [2-(2-(4-Chlorophenyl)ethyl)-2-(1,1-dimethylethyl)oxirane] had an IC50 of 23.2 µM.

On to `Cc1ccc(O)c(-n2nc3ccccc3n2)c1` [2-(2H-Benzotriazol-2-yl)-4-methylphenol], for which the IC50 was 36 µM.

With `CCCCCCCCC=CCCCCCCCC1=NCCN1CCO` [2-(8-Heptadecenyl)-2-imidazoline-1-ethanol], the IC50 is 11.8 µM.

The molecule `Nc1ccc(Cl)cc1C(=O)c1ccccc1` [2-Amino-5-chlorobenzophenone] showed an IC50 of 50.9 µM.

The molecule `CCOc1ccc2nc(N)sc2c1` [2-Amino-6-ethoxybenzothiazole] registered an IC50 of 43.3 µM.

In turn, `CCC(Cc1ccccc1)(C(=O)c1ccc(N2CCOCC2)cc1)N(C)C` (stereo not shown) [2-Benzyl-2-(dimethylamino)-1-[4-(morpholin-4-yl)phenyl]butan-1-one] showed a 50% inhibitory concentration (IC50) of 19.5 µM.

Take `Brc1ccccc1-c1ccccc1` [2-Bromobiphenyl]: 35.5 µM corresponded to half-maximal inhibition (IC50).

As to `CCc1ccc2c(c1)C(=O)c1ccccc1C2=O` [2-Ethylanthraquinone], the IC50 is 24.5 µM.

Take `CCCCC(CC)COC(=O)c1ccc(O)cc1` (stereo not shown) [2-Ethylhexyl p-hydroxybenzoate]: it took 24.5 µM to reach half-maximal inhibition (IC50).

With `CCCCC(CC)COC(=O)C(C#N)=C(c1ccccc1)c1ccccc1` (stereo not shown) [2-Ethylhexyl-2-cyano-3,3-diphenylacrylate], the IC50 was 18.4 µM.

`NNc1nc(-c2ccc([N+](=O)[O-])cc2)cs1` [2-Hydrazino-4-(4-nitrophenyl)thiazole] gave an IC50 of 23.6 µM.

As to `COc1ccc(C(=O)c2ccccc2)c(O)c1` [2-Hydroxy-4-methoxybenzophenone], the IC50 is 43.6 µM.

The molecule `Cc1ccc(O)c(C(=O)c2ccccc2)c1` [2-Hydroxy-5-methylbenzophenone] had an IC50 of 35 µM.

`O=[N+]([O-])c1ccccc1Nc1ccccc1` [2-Nitrodiphenylamine]: 48.7 µM corresponded to half-maximal inhibition (IC50).

Take `Cc1cc(C(C)(C)c2ccc(O)c(C)c2)ccc1O` [3,3'-Dimethylbisphenol A]: it took 41.6 µM to reach half-maximal inhibition (IC50).

For the molecule `O=CC=C(c1ccccc1)c1ccccc1` [3,3-Diphenylacrylaldehyde], it took 42.4 µM to reach half-maximal inhibition (IC50).

Turning to `CC(C)(C)c1ccc(CCC=O)cc1` [3-(4-tert-Butylphenyl)propanal], it took 49 µM to reach half-maximal inhibition (IC50).

In the case of `CC1C2CC(CC2C2CCCC(O)C2)C1(C)C` (stereo not shown) [3-(5,5,6-Trimethylbicyclo[2.2.1]hept-2-yl)cyclohexanol], half-maximal inhibition (IC50) required 22.7 µM.

Turning to `CCCCC(CC)COCCCN` (stereo not shown) [3-((2-Ethylhexyl)oxy)propylamine], the IC50 is 35.6 µM.

As to `CSCCCN=C=S` [3-(Methylthio)propyl isothiocyanate], the IC50 is 36.7 µM.

In the case of `CCCCCCCCOCCCN` [3-(Octyloxy)propan-1-amine], the IC50 was found to be 43.6 µM.

Molecule `Cc1cccc(Nc2ccccc2)c1` [3-Methyl-N-phenylaniline] had an IC50 of 52.9 µM.

`O=C(C=Cc1ccccc1)OCCCc1ccccc1` [3-Phenylpropyl cinnamate] showed a concentration for half-maximal inhibition (IC50) of 19.5 µM.

In turn, `O=C(CCS)OCC(COC(=O)CCS)(COC(=O)CCS)COC(=O)CCS` [3-[(3-Sulfanylpropanoyl)oxy]-2,2-bis{[(3-sulfanylpropanoyl)oxy]methyl}propyl 3-sulfanylpropanoate] gave an IC50 of 33.4 µM.

Regarding `CC(C)CC(C)(c1ccc(O)cc1)c1ccc(O)cc1` [4,4'-(4-Methylpentane-2,2-diyl)diphenol], the IC50 is 28.6 µM.

In turn, `Brc1ccc(Oc2ccc(Br)cc2)cc1` [4,4'-Dibromodiphenyl ether] gave an IC50 of 18.8 µM.

For the molecule `O=S(=O)(c1ccc(Cl)cc1)c1ccc(Cl)cc1` [4,4'-Dichlorodiphenyl sulfone], the IC50 is 49.7 µM.

For `CCCCCCCCn1sc(Cl)c(Cl)c1=O` [4,5-Dichloro-2-octyl-3(2H)-isothiazolone], the IC50 was 16.1 µM.

`CC(C)(C)CC(C)(C)c1ccc(O)cc1` [4-(1,1,3,3-Tetramethylbutyl)phenol] had an IC50 of 21.3 µM.

In turn, `CCC(C)c1cc(C(C)(C)C)c(O)c(C(C)(C)C)c1` (stereo not shown) [4-(Butan-2-yl)-2,6-di-tert-butylphenol] showed an IC50 of 8.54 µM.

`Nc1ccc(Oc2ccc(Cl)cc2)cc1` [4-Chloro-4'-aminodiphenyl ether] gave an IC50 of 41.1 µM.

Molecule `CC(CC(C#N)(c1ccccc1)c1ccccc1)N(C)C` (stereo not shown) [4-Dimethylamino-2,2-diphenylvaleronitrile] showed an IC50 of 29.6 µM.

`CCCCCCCCCCCCN1CCOCC1` [4-Dodecylmorpholine] had an IC50 of 15.5 µM.

As to `CCCCCCCCCCCCc1ccc(O)cc1` [4-Dodecylphenol], the IC50 is 19.5 µM.

In turn, `O=[N+]([O-])c1ccc(Nc2ccccc2)cc1` [4-Nitro-N-phenylaniline] gave an IC50 of 51.3 µM.

Turning to `CCCCCCCCCc1ccc(O)cc1` [4-Nonylphenol, branched], the IC50 is 34.3 µM.

In the case of `Cc1ccc(-c2ccccc2)cc1` [4-Phenyltoluene], the IC50 is 49 µM.

In turn, `N#Cc1ccc(CC(=O)c2cccc(C(F)(F)F)c2)cc1` [4-{2-Oxo-2-[3-(trifluoromethyl)phenyl]ethyl}benzonitrile] showed an IC50 of 30.9 µM.

`O=[N+]([O-])C1(Br)COCOC1` [5-Bromo-5-nitro-1,3-dioxane] showed an IC50 of 51.9 µM.

As for `O=C1CCCC=CCCCCCCCCCC1` [5-Cyclohexadecen-1-one], the IC50 was 29.2 µM.

With `COc1ccc2[nH]cc(CCN(C(C)C)C(C)C)c2c1` [5-Methoxy-N,N-diisopropyltryptamine hydrochloride], the IC50 was 25.2 µM.

Regarding `CC(C)CC(C)Nc1ccc(Nc2ccccc2)cc1` (stereo not shown) [6PPD], the IC50 is 29 µM.

With `C/C=C/C=C/CCCCCCCO` [8,10-Dodecadien-1-ol], the IC50 is 22.7 µM.

As to `CCn1c2ccccc2c2cc([N+](=O)[O-])ccc21` [9-Ethyl-3-nitro-9H-carbazole], the IC50 was 28.6 µM.

In turn, `c1ccc2c(c1)CCc1ccccc1N2` [10,11-Dihydro-5H-dibenz[b,f]azepine] gave an IC50 of 19.7 µM.

Molecule `O=C1CCCCCCCCCCOCCCCO1` [12-Oxahexadecanolide] gave an IC50 of 49 µM.

Consider `CCCCCC(=O)O[C@]1(C(C)=O)CC[C@H]2[C@@H]3CCC4=CC(=O)CC[C@]4(C)[C@H]3CC[C@@]21C` [17-((1-Oxohexyl)oxy)pregn-4-ene-3,20-dione], for which the IC50 is 22.6 µM.

In turn, `COc1ccc2c(c1OC)C(=O)O[C@H]2[C@@H]1c2cc3c(cc2CCN1C)OCO3` [(1S,9R)-beta-Hydrastine] gave an IC50 of 19 µM.

On to `CC(Cc1ccc(C(C)(C)C)cc1)CN1C[C@@H](C)O[C@@H](C)C1` (stereo partly drawn) [(2R,6S)-Fenpropimorph], for which it took 15.5 µM to reach half-maximal inhibition (IC50).

`CC/C=C\CCOC(=O)c1ccccc1O` [(3Z)-Hex-3-en-1-yl salicylate] had an IC50 of 34.7 µM.

In turn, `CC1(C)CCC[C@]2(C)[C@H]3CC(=O)O[C@]3(C)CC[C@@H]12` [(3aR)-(+)-Sclareolide] gave an IC50 of 42 µM.

In turn, `O=C(c1ccccc1)c1cc(Cl)ccc1O` [(5-Chloro-2-hydroxyphenyl)phenylmethanone] showed a 50% inhibitory concentration (IC50) of 46.5 µM.

For `C[C@@H]1CC[C@H]2C(C)(C)[C@H]3C[C@@]12CC[C@@]3(C)O` [(+)-Cedrol], the IC50 is 43.6 µM.

Regarding `CC[C@]12CCCN3CCc4c(n(c5ccccc45)C(=O)C1)[C@@H]32` [(-)-Eburnamonine], the IC50 is 1.9 µM.

`CC(C)=CCN1CC[C@@]2(C)c3cc(O)ccc3C[C@@H]1[C@@H]2C` [(-)-Pentazocine succinate] showed an IC50 of 22.8 µM.

The molecule `C/C=C\C/C=C/CCCCCCCCOC(C)=O` [(E,Z)-Tetradeca-9,12-dienyl acetate] showed an IC50 of 36.7 µM.

Molecule `C[C@@H](C1=C(CCN(C)C)Cc2ccccc21)c1ccccn1` [(S)-(+)-Dimethindene maleate] showed a half-maximal inhibitory concentration (IC50) of 13.4 µM.

`CCN(CC)CC1CCCCN1CC(=O)N1c2ccccc2C(=O)Nc2cccnc21` (stereo not shown) [AF-DX 116] gave an IC50 of 20.5 µM.

Molecule `CC1(C)CCC(C)(C)c2cc(C(=O)Nc3ccc(C(=O)O)cc3)ccc21` [AM580] had an IC50 of 43.6 µM.

Molecule `O=C1NCN(c2ccccc2)C12CCN(CCCOc1ccc(F)cc1)CC2` [AMI-193] showed an IC50 of 0.786 µM.

For `NCc1cccc(C2CCN(C(=O)c3ccc(C#Cc4ccccc4F)o3)CC2)c1` [AVE5638], the IC50 was 9.77 µM.

For the molecule `CCOC(=O)O[C@H](C)OC(=O)c1ccc2c(c1)cc(C(=O)NC1CCN(C(C)C)CC1)n2Cc1cc(-c2ccc(Cl)s2)on1` [AVE6324], the IC50 is 8.14 µM.

Consider `CN1CCN(Cc2cc(-c3ccc4[nH]c(=O)oc4c3)co2)[C@@H](c2ccc(F)cc2)C1` [AVE8488], for which the IC50 is 37.4 µM.

Take `CCCOc1sc(C(=O)N2CCC(c3cc(CN)ccc3F)CC2)c(C)c1Br` [AVE8923]: half-maximal inhibition (IC50) was put at 4.49 µM.

The molecule `CC=O` [Acetaldehyde] came in with an IC50 of 5.33 µM.

As to `CC(=O)c1ccc2c(c1)N(CCCN(C)C)c1ccccc1S2` [Acetopromazine maleate], it took 15.1 µM to reach half-maximal inhibition (IC50).

The molecule `CCCCOC(=O)CC(CC(=O)OCCCC)(OC(C)=O)C(=O)OCCCC` [Acetyl tributyl citrate] had an IC50 of 8.99 µM.

As for `CC(=O)C1=C(C)[C@@H]2C[C@@]3(C1)[C@H](C)CC[C@H]3C2(C)C` [Acetylcedrene], the IC50 was 30.5 µM.

The molecule `CCN(CC)CCOC(=O)C(c1ccccc1)c1ccccc1` [Adiphenine hydrochloride] showed an IC50 of 4.77 µM.

Molecule `ClC1=C(Cl)[C@]2(Cl)[C@H]3[C@H]([C@@H]4C=C[C@H]3C4)[C@@]1(Cl)C2(Cl)Cl` [Aldrin] gave an IC50 of 23.6 µM.

`C=CCOc1cc(Cl)ccc1C(=O)NCCN(CC)CC` [Alloclamide] had an IC50 of 8.82 µM.

Molecule `C=CCCC(=O)/C=C/C1C(C)=CCCC1(C)C` (stereo not shown) [Allyl Ionone] had an IC50 of 30.9 µM.

`C=CCNc1nc(NCC=C)nc(N2CCN(C(c3ccc(F)cc3)c3ccc(F)cc3)CC2)n1` [Almitrine dimethanesulfonate] gave an IC50 of 6.01 µM.
